From patent publication US6444850B1, “Fungicidial compounds having a fluorovinyloxphyenyl moiety and process for the preparation thereof” (priority 1997, dated 2002)

Key:
[1] = test system: Pyricularia oryzae Carvara KA301; format: in vivo; details: for C. V. (%) RCB: 50 ppm, control value, rice blast; for C. V. (%) Fungicidal Activities against RCB at 10 ppm / C. V. (%) Fungicidal Activities against RCB at 10 ppm (TABLE 6): sprayed on Nakdong rice plant, control value from lesion area
[2] = test system: Botrytis cinerae; assay: Fungicidal activity against cucumber gray mold rot (CGM) disease; format: in vivo; details: 50 ppm, control value
Method: Botrytis cinerae, which was isolated from cucumber infected thereby, was inoculated on a PDA agar medium and cultured under a 12L/12D cycle at 25° C. for 15 days to form spore. The spores were scraped, filtered through a gauze and then suspended in potato dextrose liquid medium at a concentration of 1×10^6 spore/ml. The spore suspension was sprayed on a cucumber plant having one leaf. The cucumber plant was held in a humidified room at 20° C. for 3 days. L.A. on a leaf was measured to calculate an C.V.

[3] = test system: Phytophthora infestans; format: in vivo; details: 50 ppm; control value, tomato late blight
[4] = test system: Erysiphae graminis; assay: Fungicidal activity against barley powdery mildew (BPM) disease; format: in vivo; details: for C. V. (%), Fungicidal activities against TLB at 10 ppm: Table 9 (Test Example 6); for C. V. (%) BPM: 50 ppm, control value, barley powdery mildew
Method: Erysiphae graminis was subcultured on a wheat plant in a laboratory. 15 g of barley seeds was sowed in a pot (diameter 6.5 cm) and cultured in a greenhouse for 7 days to obtain a barley plant having only a primary leaf. The barley plant was inoculated with spores by shaking thereover another plant infected by BPM. The inoculated barley plant was cultured in an incubator maintained at a temperature of 22 to 24° C. and a relative humidity of 50% for 7 days to induce BPM. L.A. on the leaf was measured to calculate an C.V.

[5] = test system: Puccinia recondita; assay: Fungicidal activity against wheat leaf rust (WLR) disease; format: in vivo; details: for C. V. (%), Fungicidal Activities against WLB at 10 ppm: Table 8 (Test Example 5); for C. V. (%) WLR: 50 ppm, control value, wheat leaf rust
[6] = test system: Rhizoctonia solani AG-1; assay: Fungicidal activity against rice sheath blight (RSB) disease; details: 50 ppm, control value
Method: 50 ml of the resulting solution was sprayed on leaves of a host plant. The plant was kept at room temperature for 24 hours to let the solvent evaporate, and then, a pathogenic fungus was inoculated thereonto. The plant was held in a humidity chamber for 24 hours, transferred to an plant growth room kept at 20 to 27° C. and a relative humidity of 60 to 80% and kept to induce disease. Subsequently, the lesion area(L.A.) attacked by the pathogenic fungus was measured according to a method of Cho(Cho, K. Y., Search Report by Korea Research Institute of Chemical Technology (1989))”. This procedure was repeated twice for each test. 10% Acetone solution containing 250 ppm of Tween-20 was used as a control.
The fungicidal activity of the compound of the present invention is repressed by a control value (C.V.) calculated as; [formula]
Rhizoctonia solani AG-1 was cultured on a PDA medium(potato 200 g, dextrose 20 g, agar 20 g and distilled water 1 l) for 3 days and the agar disc (diameter 0.6 cm) was inoculated and cultured on sterilized wheat bran medium in a 1 l bottle at 26 to 28° C. for 7 days. A mycelial mass was ground using a homogenizer, inoculated uniformly on soil of a pot wherein a Nakdong rice plant having 2 or 3 leaves and an height of 5 cm grew, and kept in humidity polyvinyl chamber for 5 days to induce RSB. L.A. on a leaf sheath was measured to calculate an C.V.

SMILES	C. V. (%) RCB [1] [%]	C. V. (%) CGM [2] [%]	C. V. (%) TLB [3] [%]	C. V. (%), Fungicidal activities against TLB at 10 ppm [4] [%]	C. V. (%) BPM [4] [%]	C. V. (%), Fungicidal Activities against WLB at 10 ppm [5] [%]	C. V. (%) WLR [5] [%]	C. V. (%) RSB [6] [%]	C. V. (%) Fungicidal Activities against RCB at 10 ppm [1] [%]	C. V. (%) Fungicidal Activities against RCB at 10 ppm (TABLE 6) [1] [%]
CO/C=C(/C(=O)OC)c1ccccc1COc1cccc(OC(F)=Cc2ccccc2)c1 [Compound 1, methyl (2E)-3-methoxy-2-{2′-{3″-(2′″-fluorostyryl)-2′″-oxy}phenoxymethyl}phenyl-2-propenoate]	97	62	70	100	100	96	100	95	–	–
CNC(=O)/C(=C/OC)c1ccccc1COc1cccc(OC(F)=Cc2ccccc2)c1 [Compound 2, (2E)-N-methyl-3-methoxy-2-{2′-{3″-(2′″-fluorostyryl)-2′″-oxy}phenoxymethyl}phenyl-2-propenamide]	100	84	74	–	86	–	96	50	–	–
CON=C(C(=O)OC)c1ccccc1COc1cccc(OC(F)=Cc2ccccc2)c1 [Compound 3]	100	15	70	–	41	–	93	70	–	–
COC(=O)C(=CSC)c1ccccc1COc1cccc(OC(F)=Cc2ccccc2)c1 [Compound 4]	90	33	86	–	91	–	85	75	–	–
COC=C(C(=O)OC)c1ccccc1COc1cccc(OC(F)=Cc2ccccc2C)c1 [Compound 5]	95	0	50	94	99	95	100	95	94	94
COC=C(C(=O)OC)c1ccccc1COc1cccc(OC(F)=Cc2cccc(C)c2)c1 [Compound 6]	100	41	86	100	100	91	98	65	96	96
CNC(=O)C(=COC)c1ccccc1COc1cccc(OC(F)=Cc2cccc(C)c2)c1 [Compound 7]	26	33	46	–	0	–	0	10	–	–
CON=C(C(=O)OC)c1ccccc1COc1cccc(OC(F)=Cc2cccc(C)c2)c1 [Compound 8]	100	51	92	93	97	90	98	92	90	90
COC(=O)C(=CSC)c1ccccc1COc1cccc(OC(F)=Cc2cccc(C)c2)c1 [Compound 9]	96	33	26	–	95	–	88	92	–	–
COC=C(C(=O)OC)c1ccccc1COc1cccc(OC(F)=Cc2ccc(C)cc2)c1 [Compound 10]	97	0	50	97	95	96	100	92	95	95
CNC(=O)C(=COC)c1ccccc1COc1cccc(OC(F)=Cc2ccc(C)cc2)c1 [Compound 11]	16	15	20	–	25	–	43	5	–	–
CON=C(C(=O)OC)c1ccccc1COc1cccc(OC(F)=Cc2ccc(C)cc2)c1 [Compound 12]	100	27	84	96	94	97	93	80	–	–
COC=C(C(=O)OC)c1ccccc1COc1cccc(OC(F)=Cc2ccc(C)c(C)c2)c1 [Compound 13]	97	58	85	99	100	95	98	50	97	97
CNC(=O)C(=COC)c1ccccc1COc1cccc(OC(F)=Cc2ccc(C)c(C)c2)c1 [Compound 14]	16	63	20	–	25	–	16	5	–	–
CON=C(C(=O)OC)c1ccccc1COc1cccc(OC(F)=Cc2ccc(C)c(C)c2)c1 [Compound 15]	92	15	25	–	100	–	96	90	–	–
COC(=O)C(=CSC)c1ccccc1COc1cccc(OC(F)=Cc2ccc(C)c(C)c2)c1 [Compound 16]	53	0	33	–	97	–	83	60	–	–
COC=C(C(=O)OC)c1ccccc1COc1cccc(OC(F)=Cc2cc(C)cc(C)c2)c1 [Compound 17]	90	50	81	–	99	99	100	60	95	95
CNC(=O)C(=COC)c1ccccc1COc1cccc(OC(F)=Cc2cc(C)cc(C)c2)c1 [Compound 18]	26	21	6	–	0	–	0	5	–	–
CON=C(C(=O)OC)c1ccccc1COc1cccc(OC(F)=Cc2cc(C)cc(C)c2)c1 [Compound 19]	100	0	33	–	98	–	100	90	–	–
COC(=O)C(=CSC)c1ccccc1COc1cccc(OC(F)=Cc2cc(C)cc(C)c2)c1 [Compound 20]	73	0	46	–	93	–	83	35	–	–
COC=C(C(=O)OC)c1ccccc1COc1cccc(OC(F)=Cc2cc(C)c(C)cc2C)c1 [Compound 21]	93	33	44	–	98	90	96	90	–	–
CNC(=O)C(=COC)c1ccccc1COc1cccc(OC(F)=Cc2cc(C)c(C)cc2C)c1 [Compound 22]	0	0	25	–	0	–	0	26	–	–
CON=C(C(=O)OC)c1ccccc1COc1cccc(OC(F)=Cc2cc(C)c(C)cc2C)c1 [Compound 23]	88	20	10	91	100	91	93	90	–	–
COC(=O)C(=CSC)c1ccccc1COc1cccc(OC(F)=Cc2cc(C)c(C)cc2C)c1 [Compound 24]	62	27	18	–	96	–	98	46	–	–
COC=C(C(=O)OC)c1ccccc1COc1cccc(OC(F)=Cc2cccc(OC)c2)c1 [Compound 25]	95	0	43	91	98	99	100	92	95	95
